Experiment: xn = mol fraction of the nth substance listed
Conditions: 101 kPa, Liquid; for speed of sound: Frequency=2 MHz; for mass density: Pycnometric method

OCCCCO [1,4-butanediol] + OCCOCCO
speed of sound [m/s], Linear variable-path acoustic interferometer
Conditions | x2 = 0 | x2 = 0.108 | x2 = 0.1977 | x2 = 0.2897 | x2 = 0.4096 | x2 = 0.509 | x2 = 0.6116 | x2 = 0.6912 | x2 = 0.7992 | x2 = 0.8838
298.15 K | 1601.6 | 1568.1 | 1549.9 | 1543.5 | 1546.2 | 1552.2 | 1558.9 | 1564.5 | 1571.3 | 1575.3
303.15 K | 1589.3 | 1558.9 | 1542 | 1535.7 | 1538.6 | 1544 | 1550.2 | 1555.3 | 1561.2 | 1564.6
308.15 K | 1577.7 | 1549.8 | 1534.4 | 1528.2 | 1531.1 | 1536.3 | 1541.8 | 1546.4 | 1551.7 | 1554.7
313.15 K | 1565.6 | 1540.6 | 1526.6 | 1520.3 | 1523.2 | 1528.1 | 1533.1 | 1537.2 | 1541.7 | 1544.4

mass density [kg/m3]
Conditions | x2 = 0 | x2 = 0.108 | x2 = 0.1977 | x2 = 0.2897 | x2 = 0.4096 | x2 = 0.509 | x2 = 0.6116 | x2 = 0.6912 | x2 = 0.7992 | x2 = 0.8838
298.15 K | 1012.6 | 1019.9 | 1026.6 | 1035 | 1047 | 1057.6 | 1069.4 | 1078.5 | 1090.6 | 1100
303.15 K | 1009.6 | 1017.1 | 1024 | 1032.3 | 1044.3 | 1054.9 | 1066.5 | 1075.6 | 1087.6 | 1096.8
308.15 K | 1006.7 | 1014.4 | 1021.4 | 1029.6 | 1041.6 | 1052.1 | 1063.7 | 1072.6 | 1084.5 | 1093.6
313.15 K | 1003.7 | 1011.7 | 1018.7 | 1027 | 1038.9 | 1049.4 | 1060.8 | 1069.6 | 1081.3 | 1090.3

OCCOCCO [diethylene glycol] + CCC(C)O
speed of sound [m/s], Linear variable-path acoustic interferometer
Conditions | x1 = 0.1097 | x1 = 0.2096 | x1 = 0.2951 | x1 = 0.3876 | x1 = 0.512 | x1 = 0.592 | x1 = 0.6771 | x1 = 0.7984 | x1 = 0.8962 | x1 = 1
298.15 K | 1243.1 | 1273.6 | 1300.5 | 1330.6 | 1372 | 1400 | 1431.4 | 1480.5 | 1525.1 | 1579.3
303.15 K | 1225.2 | 1256.7 | 1283.5 | 1313.5 | 1356.2 | 1386.1 | 1418.2 | 1468.2 | 1513.4 | 1568
308.15 K | 1207.6 | 1239.8 | 1266 | 1296 | 1339.4 | 1370.1 | 1403 | 1454.1 | 1501.7 | 1557.3
313.15 K | 1190.1 | 1222.7 | 1249.1 | 1279.3 | 1323.4 | 1354.9 | 1389.2 | 1441.2 | 1490 | 1546.1

mass density [kg/m3]
Conditions | x1 = 0.1097 | x1 = 0.2096 | x1 = 0.2951 | x1 = 0.3876 | x1 = 0.512 | x1 = 0.592 | x1 = 0.6771 | x1 = 0.7984 | x1 = 0.8962 | x1 = 1
298.15 K | 838.7 | 871.6 | 899.5 | 929.3 | 968.6 | 993.4 | 1019.2 | 1055.1 | 1083.2 | 1112.7
303.15 K | 834.7 | 867.7 | 895.7 | 925.5 | 964.9 | 989.8 | 1015.8 | 1051.8 | 1079.9 | 1109.3
308.15 K | 830.7 | 863.9 | 891.9 | 921.8 | 961.2 | 986.2 | 1012.3 | 1048.4 | 1076.6 | 1105.9
313.15 K | 826.8 | 860.1 | 888.1 | 918 | 957.6 | 982.6 | 1008.9 | 1045.1 | 1073.3 | 1102.5

OCCOCCO [diethylene glycol] + CCCCO
Conditions | mass density, 298.15 K [kg/m3] | mass density, 303.15 K [kg/m3] | mass density, 308.15 K [kg/m3] | mass density, 313.15 K [kg/m3] | speed of sound, 298.15 K [m/s] | speed of sound, 303.15 K [m/s] | speed of sound, 308.15 K [m/s] | speed of sound, 313.15 K [m/s]
x1 = 0.1095 | 840.7 | 837 | 833.4 | 829.7 | 1265.9 | 1249.5 | 1232.3 | 1215.9
x1 = 0.2096 | 872.6 | 868.9 | 865.3 | 861.6 | 1294 | 1277.8 | 1261.3 | 1245.8
x1 = 0.2955 | 899.7 | 896.1 | 892.4 | 888.8 | 1320.9 | 1305.3 | 1289 | 1273.5
x1 = 0.3874 | 928.5 | 924.9 | 921.2 | 917.6 | 1350.8 | 1335.3 | 1318.7 | 1303.2
x1 = 0.5122 | 967.1 | 963.5 | 959.9 | 956.3 | 1392.3 | 1377.7 | 1361.9 | 1347.4
x1 = 0.592 | 991.5 | 988 | 984.4 | 980.9 | 1419.3 | 1406 | 1391.6 | 1378
x1 = 0.677 | 1017.3 | 1013.7 | 1010.2 | 1006.7 | 1448.9 | 1436.8 | 1424.2 | 1411.6
x1 = 0.7986 | 1053.5 | 1050.1 | 1046.6 | 1043.1 | 1492.7 | 1481.1 | 1470.1 | 1459.2
x1 = 0.896 | 1082.3 | 1078.8 | 1075.4 | 1072 | 1531.3 | 1520.6 | 1510 | 1500
x1 = 1 | 1112.7 | 1109.3 | 1105.9 | 1102.5 | 1579.3 | 1568 | 1557.3 | 1546.1

From the NIST ThermoML archive (doi:10.1007/s10765-015-1980-6)
